{
  "source": "paper PMC3119473",
  "about": "(PLoS ONE, 2011)",
  "key": {"[1]": {"target": "T1, N-terminal PWWP domain of human WHSC1L1 (residues 247–402) (Homo sapiens, UniProt Q9BZ95)", "T1 construct": "WHSC1L1 (residues 247–402); His-tag (cleaved yes); made in house; host or cells: Escherichia coli BL21 (DE3)-V2R-pRARE2", "T1 sequence (Q9BZ95 247-402)": "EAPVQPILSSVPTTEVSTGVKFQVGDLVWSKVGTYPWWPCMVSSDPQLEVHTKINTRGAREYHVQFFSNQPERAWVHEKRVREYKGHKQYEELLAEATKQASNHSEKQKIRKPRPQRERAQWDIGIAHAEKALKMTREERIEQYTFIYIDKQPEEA", "test": "Fluorescence polarization binding of histone peptides to WHSC1L1 N-terminal PWWP domain", "conditions": "N-terminal PWWP domain only, N-terminally fluorescein-labeled peptide 40 nM, PWWP domain titrated, 20 mM PIPES pH 6.5, 50 mM NaCl, 0.01% Tween-20, Very weak = binding too weak to be fitted reliably", "experimental": "(§1) DNA fragment encoding the PWWP domain of human BRPF1 (residues 1085–1213), BRPF2 (residues 925–1049), BRPF3 (residues 1056–1195), HDGF2 (residues 1–93), DNMT3A (residues 278–427), DNMT3B (residues 206–355), MUM1 (residues 406–539) WHSC1 (residues 208–368) and WHSC1L1 (residues 247–402) were amplified by PCR and sub-cloned into pET28-MHL vector (Genbank accession number: EF456735) and transformed into Escherichia coli BL21 (DE3)-V2R-pRARE2. The cells were grown in Terrific Broth and the protein was over-expressed by addition of 1 mM isopropyl-1-thio-D-galactopyranoside (IPTG) and incubated overnight at 15°C. Harvested cells were resuspended in 50 mM HEPES, pH 7.4, supplemented with 500 mM NaCl, 2 mM β-mercaptoethanol, 5% glycerol, 0.1% CHAPS. The cells were lysed by passing through a microfluidizer (Microfluidics Corporation) at 20,000 psi. After clarification of the crude extract by high-speed centrifugation, the lysate was loaded onto a 5 ml HiTrap chelating column (GE Healthcare), charged with Ni^2+. The column was washed with 10 column volumes of 20 mM HEPES buffer, pH 7.4, containing 500 mM NaCl, 50 mM imidazole and 5% glycerol, the protein was eluted with 20 mM HEPES buffer, pH 7.4, 500 mM NaCl, 250 mM imidazole, 5% glycerol. […]\nFluorescence polarization assays were performed in 384-well plates, using the Synergy 2 microplate reader from BioTek as described in [43]. […]"}, "[2]": {"target": "T2, PWWP domain of human BRPF2 (residues 925–1049) (Homo sapiens, UniProt O95696)", "T2 construct": "BRPF2 (residues 925–1049); His-tag (cleaved yes); made in house; host or cells: Escherichia coli BL21 (DE3)-V2R-pRARE2", "T2 sequence (O95696 925-1049)": "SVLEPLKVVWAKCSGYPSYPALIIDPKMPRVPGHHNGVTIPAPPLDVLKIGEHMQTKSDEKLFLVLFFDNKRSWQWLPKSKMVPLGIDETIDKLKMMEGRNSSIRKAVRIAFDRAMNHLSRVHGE", "test": "Fluorescence polarization binding of histone peptides to BRPF2 PWWP domain", "conditions": "N-terminally fluorescein-labeled peptide 40 nM, PWWP domain titrated, 20 mM PIPES pH 6.5, 50 mM NaCl, 0.01% Tween-20, Very weak = binding too weak to be fitted reliably", "experimental": "as §1, with “glycerol. The protein was dialyzed against buffer containing 20 mM HEPES, pH 7.4, 500 mM NaCl and 5% glyceral.” for “glycerol.”"}, "[3]": {"target": "T3, PWWP domain of human HDGF2 (residues 1–93) (Homo sapiens, UniProt Q7Z4V5)", "T3 construct": "HDGF2 (residues 1–93); His-tag (cleaved yes); made in house; host or cells: Escherichia coli BL21 (DE3)-V2R-pRARE2", "T3 sequence (Q7Z4V5 1-93)": "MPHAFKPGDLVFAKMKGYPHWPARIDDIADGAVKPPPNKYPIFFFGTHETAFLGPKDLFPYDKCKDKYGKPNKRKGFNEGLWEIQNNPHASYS", "test": "Fluorescence polarization binding of histone peptides to HDGF2 PWWP domain", "conditions": "N-terminally fluorescein-labeled peptide 40 nM, PWWP domain titrated, 20 mM PIPES pH 6.5, 50 mM NaCl, 0.01% Tween-20, Very weak = binding too weak to be fitted reliably", "experimental": "DNA fragment encoding the PWWP domain of human BRPF1 (residues 1085–1213), BRPF2 (residues 925–1049), BRPF3 (residues 1056–1195), HDGF2 (residues 1–93), DNMT3A (residues 278–427), DNMT3B (residues 206–355), MUM1 (residues 406–539) WHSC1 (residues 208–368) and WHSC1L1 (residues 247–402) were amplified by PCR and sub-cloned into pET28-MHL vector (Genbank accession number: EF456735) and transformed into Escherichia coli BL21 (DE3)-V2R-pRARE2. The cells were grown in Terrific Broth and the protein was over-expressed by addition of 1 mM isopropyl-1-thio-D-galactopyranoside (IPTG) and incubated overnight at 15°C. Harvested cells were resuspended in 50 mM HEPES, pH 7.4, supplemented with 500 mM NaCl, 2 mM β-mercaptoethanol, 5% glycerol, 0.1% CHAPS. The cells were lysed by passing through a microfluidizer (Microfluidics Corporation) at 20,000 psi. After clarification of the crude extract by high-speed centrifugation, the lysate was loaded onto a 5 ml HiTrap chelating column (GE Healthcare), charged with Ni^2+. The column was washed with 10 column volumes of 20 mM HEPES buffer, pH 7.4, containing 500 mM NaCl, 50 mM imidazole and 5% glycerol, the protein was eluted with 20 mM HEPES buffer, pH 7.4, 500 mM NaCl, 250 mM imidazole, 5% glycerol. The protein was dialyzed against buffer containing 20 mM HEPES, pH 7.4, 500 mM NaCl and 5% glyceral. TEV protease was added to combined fractions containing target proteins to remove the His-tag. All the proteins except DNMT3A were further purified to homogeneity by ion-exchange chromatography on Source 30S column (10×10) (GE Healthcare), equilibrated with 20 mM PIPES buffer, pH 6.5, and eluted with linear gradient of NaCl up to 500 mM concentration (20CV). For DNMT3A, Source 30Q column was used for ion exchange chromatography. The ^15N-labeled proteins for NMR titration were purified in the same protocols as native ones except that bacteria were grew in M9 minimal medium containing 1 g/L ^15(NH4)2SO4 as the sole nitrogen source. The labeled proteins were concentrated to 0.15–0.3 mM for NMR titration.\nFluorescence polarization assays were performed in 384-well plates, using the Synergy 2 microplate reader from BioTek as described in [43]. All the peptides were synthesized and purified by Tufts University Core Services (Boston, MA, U.S.A.), with the N-terminus labeled with fluorescein. Binding assays were performed in a 10 µl volume at a constant labeled peptide concentration (40 nM), by titrating the PWWP domains (at concentrations ranging from low to high micromolar) into 20 mM PIPES buffer (pH 6.5), containing 50 mM NaCl, 0.01% Tween-20. The data points were fitted to ligand binding function using Sigma Plot software to determine the K d values."}, "[4]": {"target": "T4, PWWP domain of human BRPF1 (residues 1085–1213) (Homo sapiens, UniProt P55201)", "T4 construct": "PWWP domain of human BRPF1 (residues 1085–1213); His-tag (cleaved yes); made in house; host or cells: Escherichia coli BL21 (DE3)-V2R-pRARE2", "T4 sequence (P55201 1085-1213)": "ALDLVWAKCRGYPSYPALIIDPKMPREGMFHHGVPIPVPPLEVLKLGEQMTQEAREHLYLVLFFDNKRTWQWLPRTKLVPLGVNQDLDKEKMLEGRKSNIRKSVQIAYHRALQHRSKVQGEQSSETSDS", "test": "Fluorescence polarization binding of histone peptides to BRPF1 PWWP domain", "conditions": "N-terminally fluorescein-labeled peptide 40 nM, PWWP domain titrated, 20 mM PIPES pH 6.5, 50 mM NaCl, 0.01% Tween-20, Very weak = binding too weak to be fitted reliably", "experimental": "as §1, with “glycerol. The protein was dialyzed against buffer containing 20 mM HEPES, pH 7.4, 500 mM NaCl and 5% glyceral.” for “glycerol.”"}, "[5]": {"target": "T5, PWWP domain of human MUM1 (melanoma associated antigen (mutated) 1), residues 406-539 (human, UniProt Q2TAK8 406-539)", "T5 construct": "PWWP domain of human MUM1, residues 406-539; Cloned into pET28-MHL (vector GenBank EF456735); source: E. coli BL21 (DE3)-V2R-pRARE2, purified (Ni2+ chelating column, TEV cleavage, Source 30S ion exchange)", "T5 sequence (Q2TAK8 406-539, stated change not applied)": "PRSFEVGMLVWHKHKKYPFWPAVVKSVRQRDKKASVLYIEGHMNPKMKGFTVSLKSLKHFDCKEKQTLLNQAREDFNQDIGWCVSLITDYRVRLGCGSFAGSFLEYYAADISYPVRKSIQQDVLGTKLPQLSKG", "test": "fluorescence polarisation; 384-well plates, 10 µl; N-terminal fluorescein peptide constant at 40 nM, PWWP domain titrated (low to high micromolar); 20 mM PIPES pH 6.5, 50 mM NaCl, 0.01% Tween-20", "conditions": "both partners purified"}, "[6]": {"target": "T6, PWWP domain of human HDGF2 (Hepatoma-derived growth factor 2), residues 1-93 (human, UniProt Q7Z4V5 1-93)", "T6 construct": "PWWP domain of human HDGF2, residues 1-93; Cloned into pET28-MHL (vector GenBank EF456735); also called HGDF2; source: E. coli BL21 (DE3)-V2R-pRARE2, purified (Ni2+ chelating column, TEV cleavage, Source 30S ion exchange)", "T6 sequence (Q7Z4V5 1-93)": "as the sequence (Q7Z4V5 1-93) above", "test": "fluorescence polarisation; 384-well plates, 10 µl; N-terminal fluorescein peptide constant at 40 nM, PWWP domain titrated (low to high micromolar); 20 mM PIPES pH 6.5, 50 mM NaCl, 0.01% Tween-20", "conditions": "both partners purified"}},
  "note": "Entries after “also recorded” stand apart in the source; their conditions may differ. Square brackets hold non-standard residues; d marks the D form. Ends that are not written are not given here. fluorescein = fluorescein, N-terminal label; Lys(Me3) = C[N+](C)(C)CCCC[C@H](N)C(=O)O; Lys(Me2) = CN(C)CCCC[C@H](N)C(=O)O",
  "data": [
    {"molecule": "CC(C)[C@H](NC(=O)CNC(=O)CNC(=O)[C@@H](NC(=O)[C@H](C)NC(=O)[C@@H]1CCCN1)[C@@H](C)O)C(=O)N[C@@H](CCCCN(C)C)C(=O)N[C@@H](CCCCN)C(=O)N1CCC[C@H]1C(=O)N[C@@H](Cc1c[nH]cn1)C(=O)N[C@@H](CCCNC(=N)N)C(=O)N[C@@H](Cc1ccc(O)cc1)C(=O)O", "note": "[Peptide H3K36me2]", "values": [
      {"measurement": "WHSC1L1_N Kd (mM)", "setting": "[1]", "result": "Very weak"},
      {"measurement": "BRPF2 Kd(mM)", "setting": "[2]", "result": "Very weak"}
    ]},
    {"molecule": "CC(C)[C@H](NC(=O)CNC(=O)CNC(=O)[C@@H](NC(=O)[C@H](C)NC(=O)[C@@H]1CCCN1)[C@@H](C)O)C(=O)N[C@@H](CCCC[N+](C)(C)C)C(=O)N[C@@H](CCCCN)C(=O)N1CCC[C@H]1C(=O)N[C@@H](Cc1c[nH]cn1)C(=O)N[C@@H](CCCNC(=N)N)C(=O)N[C@@H](Cc1ccc(O)cc1)C(=O)O", "note": "[Peptide H3K36me3]", "values": [
      {"measurement": "WHSC1L1_N Kd (mM)", "setting": "[1]", "result": "Very weak"},
      {"measurement": "HDGF2 Kd(mM)", "setting": "[3]", "result": "weakly; also recorded: Very weak"}
    ]},
    {"molecule": "CC[C@H](C)[C@H](NC(=O)[C@@H](N)CCC(=O)O)C(=O)N[C@@H](C)C(=O)N[C@@H](CCC(N)=O)C(=O)N[C@@H](CC(=O)O)C(=O)N[C@@H](Cc1ccccc1)C(=O)N[C@@H](CCCCN(C)C)C(=O)N[C@H](C(=O)N[C@@H](CC(=O)O)C(=O)N[C@@H](CC(C)C)C(=O)N[C@@H](CCCNC(=N)N)C(=O)N[C@@H](Cc1ccc(O)cc1)C(=O)O)[C@@H](C)O", "note": "[Peptide H3K79me2]", "values": [
      {"measurement": "HDGF2 Kd(mM)", "setting": "[3]", "result": "Very weak"}
    ]},
    {"molecule": "CC[C@H](C)[C@H](NC(=O)[C@@H](N)CCC(=O)O)C(=O)N[C@@H](C)C(=O)N[C@@H](CCC(N)=O)C(=O)N[C@@H](CC(=O)O)C(=O)N[C@@H](Cc1ccccc1)C(=O)N[C@@H](CCCC[N+](C)(C)C)C(=O)N[C@H](C(=O)N[C@@H](CC(=O)O)C(=O)N[C@@H](CC(C)C)C(=O)N[C@@H](CCCNC(=N)N)C(=O)N[C@@H](Cc1ccc(O)cc1)C(=O)O)[C@@H](C)O", "note": "[Peptide H3K79me3]", "values": [
      {"measurement": "HDGF2 Kd(mM)", "setting": "[3]", "result": "weakly; also recorded: very weak binding affinity"}
    ]},
    {"molecule": "AKRHRK(me)2VLRDN [Peptide H4K20me2, histone H4 peptide dimethylated at K20; N-terminus fluorescein-labeled in FP assay]", "values": [
      {"measurement": "HDGF2 Kd(mM)", "setting": "[3]", "result": "Very weak"},
      {"measurement": "BRPF1 Kd(mM)", "setting": "[4]", "result": "Very weak"}
    ]},
    {"molecule": "AKRHRK(me)3VLRDN [Peptide H4K20me3, histone H4 peptide trimethylated at K20; N-terminus fluorescein-labeled in FP assay]", "values": [
      {"measurement": "HDGF2 Kd(mM)", "setting": "[3]", "result": "weakly; also recorded: Very weak"},
      {"measurement": "BRPF1 Kd(mM)", "setting": "[4]", "result": "Very weak"}
    ]},
    {"molecule": "fluorescein-PATGGV[Lys(Me3)]KPHRY (histone H3, stretch around K36; source: synthetic peptide (Tufts University Core Services))", "note": "[H3K36me3 peptide PATGGVK(me)3KPHRY, N-terminal fluorescein]", "values": [
      {"measurement": "Kd", "setting": "[5]", "result": "100 ± 70", "unit": "µM"}
    ]},
    {"molecule": "fluorescein-PATGGV[Lys(Me2)]KPHRY (histone H3, stretch around K36; source: synthetic peptide (Tufts University Core Services))", "note": "[H3K36me2 peptide PATGGVK(me)2KPHRY, N-terminal fluorescein]", "values": [
      {"measurement": "Kd", "setting": "[6]", "result": "1000 ± 200", "unit": "µM"},
      {"measurement": "Kd", "setting": "[5]", "result": "400 ± 100", "unit": "µM"}
    ]}
  ]
}
